Data from patent US8822377B2, “Herbicidal compositions comprising topramezone and pinoxaden” (BASF SE, priority 2011, dated 2014).

Assays:
GALAP (cleaver) = test: Greenhouse post-emergence herbicidal activity against cleaver; format: in vivo; details: Galium aparine, 648 h, topramezone 12 g a.i./ha, read-out: Herbicidal activity (%) at 27 DAT Observed GALAP GS22
Description: (§1) The test period extended over 1 to 4 weeks.
(§2) 22 ff. E=X+Y−(X·Y/100) where • X=effect in percent using herbicide A at an application rate a; • Y=effect in percent using pinoxaden (herbicide B) at application rate b or a combination of pinoxaden and safener C at application rates b and c; • E=expected effect (in %) of A+B at application rates a+b or of A+B+C at application rates a+b+c.
(§3) The value E corresponds to the effect (plant damage or injury) which is to be expected if the activity of the individual compounds is just additive. If the observed effect is higher than the value E calculated according to Colby, a synergistic effect is present.

VERPE (field speedwell) = test: Greenhouse post-emergence herbicidal activity against field speedwell; format: in vivo; details: Veronica persica, 648 h, topramezone 12 g a.i./ha, read-out: Herbicidal activity (%) at 27 DAT Observed VERPE GS22
Description: as §1, §2, §3

[1] = test system: HORVW (winter barley) Highlight; test: Greenhouse post-emergence crop damage rating, winter barley; details: topramezone 12 g a.i./ha
Protocol: (§4) The culture containers used were plastic pots containing loamy sand with approximately 3.0% of humus as substrate. The seeds of the test plants were sown separately for each species.
(§5) In all use examples, plants were grown in a greenhouse environment.
(§6) To this end, the test plants were either sown directly and grown in the same containers, or they were first grown separately as seedlings and transplanted into the test containers a few days prior to treatment.
(§7) Depending on the species, the plants were kept at 10-25° C. and 20-35° C., respectively. The test period extended over 1 to 4 weeks. During this time, the plants were tended and their response to the individual treatments was evaluated.
(§8) Topramezone was used as a commercial suspension concentrate (Clio® of BASF SE) having an active ingredient concentration of 336 g/l.
(§9) The evaluation for the damage caused by the chemical compositions was carried out using a scale from 0 to 100%, compared to the untreated control plants. Here, 0 means no damage and 100 means complete destruction of the plants.

TRZAS Taifun = test: Greenhouse post-emergence crop damage rating, wheat TRZAS; details: topramezone 12 g a.i./ha
Protocol: as §4, §5, §6, §7, §8, §9

[2] = test system: TRZAW (winter wheat) Cubus; test: Greenhouse post-emergence crop damage rating, winter wheat; details: topramezone 12 g a.i./ha, 0=no damage, 100=complete destruction
Protocol: as §4, §5, §6, §7, §8, §9

Question: Which inhibition at 12 g/ha (GALAP (cleaver)) does the source give for `Cc1c(C(=O)c2cnn(C)c2O)ccc(S(C)(=O)=O)c1C1=NOCC1` [Topramezone, [3-(4,5-dihydro-1,2-oxazol-3-yl)-4-mesyl-o-tolyl](5-hydroxy-1-methylpyrazol-4-yl)methanone] here?
Answer: 90%

Question: What about the inhibition at 12 g/ha (VERPE (field speedwell)) of the same compound?
Answer: 75%

Question: And the “Herbicidal activity (%) at 27 DAT HORVW Highlight GS11” value [1]?
Answer: 20%

Question: And the “Herbicidal activity (%) at 27 DAT TRZAS Taifun GS11” value (TRZAS Taifun)?
Answer: 30%

Question: And the “Herbicidal activity (%) at 27 DAT TRZAW Cubus GS12” value [2]?
Answer: 20%
